For the assay, the system named is Mycosphaerella graminicola; Anamorph: Septoria tritici; Bayer Code SEPTTR. The assay is described as follows: Leaf blotch of wheat, foliar fungicide treatment, one day protectant (1DP) or three day curative (3DC). Format: in vivo, Septoria tritici on wheat plants (variety Yuma). Particulars: Zymoseptoria tritici; for pest or weed control at 200 ppm / pest or weed control at 50 ppm: % disease control rating.

Where [1] appears, read: 24 h, one day protectant (1DP), 25 ppm, rating of percent disease control, read-out: SETTTR 1DP 25 ppm.
Setting [2] is: 24 h, one day protectant (1DP), rating of percent disease control, read-out: SEPTTR 1DP 100 ppm.
The mark [3] stands for this setting: 72 h, three day curative (3DC), 25 ppm, rating of percent disease control, read-out: SEPTTR 3DC 25 ppm.
Where [4] appears, read: 72 h, three day curative (3DC), rating of percent disease control, read-out: SEPTTR 3DC 100 ppm.
[5] abbreviates: 24 h, one day protectant (1DP), 25 ppm (first 1DP column), percent control rating, read-out: SETTTR 1DP 25 ppm.
Where [6] appears, read: 24 h, one day protectant (1DP), 25 ppm as printed (second 1DP column), percent control rating, read-out: SETTTR 1DP 25 ppm.
[7] abbreviates: 72 h, three day curative (3DC), 25 ppm, percent control rating, read-out: SEPTTR 3DC 25 ppm.
The mark [8] stands for this setting: 72 h, three day curative (3DC), percent control rating, read-out: SEPTTR 3DC 100 ppm.
[9] abbreviates: 24 h, one day protectant, 25 ppm, rating of percent disease control, read-out: SETTTR 1DP 25 ppm.
Where [10] appears, read: 24 h, one day protectant, rating of percent disease control, read-out: SEPTTR 1DP 100 ppm.
Setting [11] is: 72 h, three day curative, 25 ppm, rating of percent disease control, read-out: SEPTTR 3DC 25 ppm.
[12] abbreviates: 72 h, three day curative, rating of percent disease control, read-out: SEPTTR 3DC 100 ppm.
The mark [13] stands for this setting: 24 h, one day protectant (1DP), 25 ppm, percent disease control rating, read-out: SETTTR 1DP 25 ppm.
The mark [14] stands for this setting: 24 h, one day protectant (1DP), percent disease control rating, read-out: SEPTTR 1DP 100 ppm.
Where [15] appears, read: 72 h, three day curative (3DC), 25 ppm, percent disease control rating, read-out: SEPTTR 3DC 25 ppm.
Where [16] appears, read: 72 h, three day curative (3DC), percent disease control rating, read-out: SEPTTR 3DC 100 ppm.

SMILES strings stand for the structures. Like-named read-outs stand apart in the source and are kept apart here.

From patent US9204653B2, “5-fluoro pyrimidine derivatives” (DOW AGROSCIENCES LLC, priority 2008, dated 2015) come the findings set out here.

With `O=C(Nc1ccccc1F)Nc1nc(OCc2cccc(F)c2)ncc1F` [Compound 231], the pest or weed control at 25 ppm under setting [1] was 0 to 25% and the pest or weed control at 25 ppm under setting [3] was in the range of 0 to 25%. Besides, the pest or weed control at 100 ppm reads like this: under setting [2], 0 to 25%; under setting [4], 0 to 25%.

On to `O=S(=O)(Nc1nc(O)ncc1F)c1ccccc1` [Compound 956, N-(5-Fluoro-2-hydroxypyrimidin-4-yl)benzenesulfonamide], for which the pest or weed control at 25 ppm lay within 0 to 25% under setting [5], 0 to 25% under setting [6] and 0 to 25% under setting [7]. Under setting [8], the pest or weed control at 100 ppm is 0 to 25%.

Turning to `CC#CCOc1ncc(F)c(NC(=O)Nc2ccsc2)n1` [Compound 729], the pest or weed control at 25 ppm reads like this: under setting [9], 51 to 75%; under setting [11], 51 to 75%. Also, the pest or weed control at 100 ppm under setting [10] was 26 to 50% and the pest or weed control at 100 ppm under setting [12] was in the range of 51 to 75%.

As to `Cc1ccc(C)c(NNc2nc(OCc3ccccc3)ncc2F)c1` [Compound 1036], the pest or weed control at 25 ppm is 0 to 25% under setting [5], 0 to 25% under setting [6] and 0 to 25% under setting [7]. For the same molecule, the pest or weed control at 100 ppm under setting [8] was 0 to 25%.

Molecule `Nc1nc(OCc2ccncc2)ncc1F` [Compound 856] returned a pest or weed control at 200 ppm (24 h, one day protectant) of 76 to 100%.

As to `COCCOc1ncc(F)c(N)n1` [Compound 172], the pest or weed control at 25 ppm by setting is: under setting [13], 0 to 25%; under setting [15], 0 to 25%. In addition, the pest or weed control at 100 ppm by setting is: under setting [14], 0 to 25%; under setting [16], 0 to 25%.

The molecule `Fc1cnc(OCc2c(Cl)cccc2Cl)nc1NC1CC1` [Compound 877] displayed a pest or weed control at 200 ppm (24 h, one day protectant) of 76 to 100%.

For the molecule `COc1ncc(F)c(NNc2ccc(Cl)nn2)n1` [Compound 1048], the pest or weed control at 25 ppm under setting [5] lay in the range of 0 to 25%, the pest or weed control at 25 ppm under setting [6] is 0 to 25% and the pest or weed control at 25 ppm under setting [7] lay within 0 to 25%. Moreover, the pest or weed control at 100 ppm under setting [8] lay in the range of 0 to 25%.

`COc1ccccc1COc1ncc(F)c(NC2CC2)n1` [Compound 821]: the pest or weed control at 200 ppm (24 h, one day protectant) lay within 76 to 100%.

As for `Cc1cccc(Oc2ccc(COc3ncc(F)c(N)n3)cc2)c1` [Compound 716], the pest or weed control at 25 ppm runs as follows: under setting [9], 76 to 100%; under setting [11], 76 to 100%. Besides, the pest or weed control at 100 ppm under setting [10] is 76 to 100% and the pest or weed control at 100 ppm under setting [12] is 76 to 100%.

The molecule `Fc1cnc(OCc2cccc(Cl)c2)nc1NC1CC1` [Compound 887] returned a pest or weed control at 200 ppm (24 h, one day protectant) of 76 to 100%.

Regarding `COc1cccc(COc2ncc(F)c(-n3ccnc3)n2)c1` [Compound 334], the pest or weed control at 25 ppm lay within 76 to 100% under setting [1] and 76 to 100% under setting [3]. Further, the pest or weed control at 100 ppm runs as follows: under setting [2], 76 to 100%; under setting [4], 76 to 100%.

On to `C=CCOC(=O)Oc1ncc(F)c(/N=C/N(C)C)n1` [Compound 647], for which the pest or weed control at 25 ppm under setting [9] lay within 76 to 100% and the pest or weed control at 25 ppm under setting [11] fell in the range of 76 to 100%. Moreover, the pest or weed control at 100 ppm lay in the range of 76 to 100% under setting [10] and 76 to 100% under setting [12].

Regarding `COc1cccc(COc2ncc(F)c(N/N=C/c3cccs3)n2)c1` [Compound 45, (E)-5-Fluoro-2-(3-methoxybenzyloxy)-4-(2-(thiophen-2-ylmethylene)-hydrazinyl)pyrimidine], the pest or weed control at 25 ppm reads like this: under setting [13], 51 to 75%; under setting [15], 26 to 50%. Further, the pest or weed control at 100 ppm under setting [14] is 76 to 100% and the pest or weed control at 100 ppm under setting [16] lay within 26 to 50%.

`COc1ccc(COc2ncc(F)c(N)n2)cc1C(F)(F)F` [Compound 476]: the pest or weed control at 25 ppm lay in the range of 76 to 100% under setting [1] and 76 to 100% under setting [3]. Also, the pest or weed control at 100 ppm by setting is: under setting [2], 76 to 100%; under setting [4], 76 to 100%.

Take `COc1ccccc1COc1ncc(F)c(/N=C/N2CCOCC2)n1` [Compound 541]: the pest or weed control at 25 ppm was in the range of 76 to 100% under setting [1] and 76 to 100% under setting [3]. Further, the pest or weed control at 100 ppm by setting is: under setting [2], 76 to 100%; under setting [4], 76 to 100%.

Take `Fc1ccc(COc2ncc(F)c(/N=C/N3CCOCC3)n2)cc1` [Compound 795]: the pest or weed control at 25 ppm fell in the range of 76 to 100% under setting [1] and 76 to 100% under setting [3]. Also, the pest or weed control at 100 ppm is 76 to 100% under setting [2] and 76 to 100% under setting [4].

Take `C=CCOc1ncc(F)c(NNc2cc(C)ccc2C)n1` [Compound 1074]: the pest or weed control at 25 ppm reads like this: under setting [5], 0 to 25%; under setting [6], 0 to 25%; under setting [7], 0 to 25%. Also, under setting [8], the pest or weed control at 100 ppm was in the range of 26 to 50%.

As for `O=[N+]([O-])c1ccccc1SNc1nc(OCc2ccc(F)c(F)c2)ncc1F` [Compound 324], the pest or weed control at 25 ppm is, setting by setting: under setting [1], 76 to 100%; under setting [3], 0 to 25%. In addition, the pest or weed control at 100 ppm is, setting by setting: under setting [2], 76 to 100%; under setting [4], 26 to 50%.

With `C=CCONc1nc(OCc2cccc(OC)c2)ncc1F` [Compound 32, O-Allyl-N-(5-fluoro-2-(3-methoxybenzyloxy)pyrimidin-4-yl)hydroxylamine], the pest or weed control at 25 ppm is, setting by setting: under setting [13], 26 to 50%; under setting [15], 0 to 25%. Further, the pest or weed control at 100 ppm runs as follows: under setting [14], 76 to 100%; under setting [16], 76 to 100%.

As to `O=C(NCc1ccccc1F)Nc1nc(OCc2ccc(F)cc2)ncc1F` [Compound 477], the pest or weed control at 25 ppm was 0 to 25% under setting [1] and 0 to 25% under setting [3]. Moreover, the pest or weed control at 100 ppm is, setting by setting: under setting [2], 0 to 25%; under setting [4], 51 to 75%.

On to `COc1ccc(COc2ncc(F)c(N)n2)cc1C` [Compound 386], for which the pest or weed control at 25 ppm by setting is: under setting [1], 76 to 100%; under setting [3], 76 to 100%. The pest or weed control at 100 ppm reads like this: under setting [2], 76 to 100%; under setting [4], 76 to 100%.

Under “24 h, one day protectant”, `Fc1ccc(COc2ncc(F)c(NCc3ccc(Cl)nc3)n2)cc1` [Compound 901] returned a pest or weed control at 50 ppm of 51 to 75% and a pest or weed control at 200 ppm of 76 to 100%.

As to `Cc1cc(COc2ncc(F)c(N)n2)nn1C` [Compound 431], the pest or weed control at 25 ppm by setting is: under setting [1], 76 to 100%; under setting [3], 76 to 100%. Also, the pest or weed control at 100 ppm was 76 to 100% under setting [2] and 76 to 100% under setting [4].

As for `CC(Oc1ncc(F)c(/N=C2\CCCCN2C)n1)c1ccc(F)cc1` (stereo not shown) [Compound 424], the pest or weed control at 25 ppm under setting [1] was 51 to 75% and the pest or weed control at 25 ppm under setting [3] is 51 to 75%. In addition, the pest or weed control at 100 ppm was in the range of 76 to 100% under setting [2] and 76 to 100% under setting [4].

Turning to `COc1ccc(/C(C)=N/Nc2nc(OC)ncc2F)cc1` [Compound 1017], the pest or weed control at 25 ppm reads like this: under setting [5], 0 to 25%; under setting [6], 26 to 50%; under setting [7], 0 to 25%. Also, under setting [8], the pest or weed control at 100 ppm lay within 51 to 75%.

On to `Nc1nc(OCc2ccc(F)c(F)c2)ncc1F` [Compound 210], for which the pest or weed control at 25 ppm under setting [1] lay within 76 to 100% and the pest or weed control at 25 ppm under setting [3] is 76 to 100%. In addition, the pest or weed control at 100 ppm under setting [2] lay within 76 to 100% and the pest or weed control at 100 ppm under setting [4] fell in the range of 76 to 100%.

For the molecule `Fc1cnc(OCc2ccco2)nc1NCc1ccc(Cl)nc1` [Compound 873], for the setting “24 h, one day protectant”, the pest or weed control at 50 ppm is 0 to 25% and the pest or weed control at 200 ppm fell in the range of 0 to 25%.

Under “24 h, one day protectant”, `O=c1nc(NCc2ccccc2F)c(F)c[nH]1` [Compound 832] returned a pest or weed control at 50 ppm of 0 to 25% and a pest or weed control at 200 ppm of 0 to 25%.

Consider `Cc1cc(C)c(COc2ncc(F)c(N)n2)cc1C` [Compound 691], for which the pest or weed control at 25 ppm lay within 51 to 75% under setting [9] and 51 to 75% under setting [11]. Further, the pest or weed control at 100 ppm under setting [10] lay in the range of 76 to 100% and the pest or weed control at 100 ppm under setting [12] was 76 to 100%.

`Cc1nn(C)c2sc(COc3ncc(F)c(N)n3)cc12` [Compound 132]: the pest or weed control at 25 ppm is, setting by setting: under setting [13], 76 to 100%; under setting [15], 76 to 100%. The pest or weed control at 100 ppm under setting [14] was 76 to 100% and the pest or weed control at 100 ppm under setting [16] lay within 76 to 100%.

Regarding `CCCNC(=O)Nc1nc(OCc2ccc(C)cc2)ncc1F` [Compound 536], the pest or weed control at 25 ppm fell in the range of 0 to 25% under setting [1] and 26 to 50% under setting [3]. The pest or weed control at 100 ppm is, setting by setting: under setting [2], 0 to 25%; under setting [4], 26 to 50%.

Consider `N#Cc1cccc(COc2ncc(F)c(NC(=O)Nc3ccccc3F)n2)c1` [Compound 142], for which the pest or weed control at 25 ppm runs as follows: under setting [13], 0 to 25%; under setting [15], 0 to 25%. For the same molecule, the pest or weed control at 100 ppm runs as follows: under setting [14], 0 to 25%; under setting [16], 0 to 25%.

With `C=CCOc1ncc(F)c(N/N=C/C2CC2)n1` [Compound 1062], the pest or weed control at 25 ppm under setting [5] was in the range of 0 to 25%, the pest or weed control at 25 ppm under setting [6] was 0 to 25% and the pest or weed control at 25 ppm under setting [7] was 0 to 25%. The pest or weed control at 100 ppm under setting [8] lay within 0 to 25%.
